ChEMBL document CHEMBL1201862, “PubChem BioAssay data set” (2004)
Calls of active or inactive are those of the source. Rule as the data show it, for most assays here: actives have a measured EC50 and inactives only a lower limit.

How the values were obtained:
Cytochrome P450 3A4 = Cytochrome P450 3A4 (Homo sapiens, UniProt P08684);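 also: CYP3A4 tested as one member of a cytochrome P450 panel screen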
[1] = inhibitors of SNCA 5'UTR-driven reporter translation, confirmation, H4 neuroglioma cells, luminescence (AID 1988); assay type: functional, cell-based
[2] = inhibitors of firefly luciferase expression or activity, dose response, H4 neuroglioma cells, luminescence (AID 1990); assay type: functional, cell-based
[3] = Luminescence Cell-Based Dose Response HTS to Identify Inhibitors of 5'UTR Stem-Loop Driven Prion Protein mRNA Translation in H4 Neuroglioblastoma Cells. [Related pubchem assays: 1827 (Project Summary), 1813 (Primary HTS)]; assay type: functional
Cytochrome P450 2D6 = Cytochrome P450 2D6 (Homo sapiens, UniProt P10635);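 also: CYP2D6 member of a cytochrome P450 panel assay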
Streptococcus = test: Group A Streptococcus viability loss, dose response, counter-screen for streptokinase expression inhibitor project, luminescence, BacTiterGlo (AID 1915); assay type: functional, organism-based;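 also: potency for reduction of bacterial viability or growth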
[4] = test system: Streptococcus sp. 'group A'; test: growth inhibition of control SK(-) GAS strain, dose response, counter-screen for streptokinase expression inhibitor project, luminescence, kanamycin, BacTiterGlo, confirmation (AID 1900); assay type: functional, organism-based

Sequence of Cytochrome P450 3A4 (P08684 whole entry): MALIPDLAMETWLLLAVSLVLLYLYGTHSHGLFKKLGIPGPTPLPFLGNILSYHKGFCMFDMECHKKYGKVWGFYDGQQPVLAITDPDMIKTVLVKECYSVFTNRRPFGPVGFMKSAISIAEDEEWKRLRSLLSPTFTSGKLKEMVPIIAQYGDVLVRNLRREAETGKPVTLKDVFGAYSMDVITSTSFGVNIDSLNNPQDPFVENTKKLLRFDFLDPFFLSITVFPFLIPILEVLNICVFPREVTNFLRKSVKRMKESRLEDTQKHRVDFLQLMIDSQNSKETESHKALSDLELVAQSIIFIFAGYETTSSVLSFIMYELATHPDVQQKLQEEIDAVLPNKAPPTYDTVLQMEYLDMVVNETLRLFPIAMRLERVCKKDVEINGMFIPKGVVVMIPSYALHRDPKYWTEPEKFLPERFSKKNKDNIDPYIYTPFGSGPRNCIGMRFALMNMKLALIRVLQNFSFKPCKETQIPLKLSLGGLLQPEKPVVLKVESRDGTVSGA
Sequence of Cytochrome P450 2D6 (P10635 whole entry): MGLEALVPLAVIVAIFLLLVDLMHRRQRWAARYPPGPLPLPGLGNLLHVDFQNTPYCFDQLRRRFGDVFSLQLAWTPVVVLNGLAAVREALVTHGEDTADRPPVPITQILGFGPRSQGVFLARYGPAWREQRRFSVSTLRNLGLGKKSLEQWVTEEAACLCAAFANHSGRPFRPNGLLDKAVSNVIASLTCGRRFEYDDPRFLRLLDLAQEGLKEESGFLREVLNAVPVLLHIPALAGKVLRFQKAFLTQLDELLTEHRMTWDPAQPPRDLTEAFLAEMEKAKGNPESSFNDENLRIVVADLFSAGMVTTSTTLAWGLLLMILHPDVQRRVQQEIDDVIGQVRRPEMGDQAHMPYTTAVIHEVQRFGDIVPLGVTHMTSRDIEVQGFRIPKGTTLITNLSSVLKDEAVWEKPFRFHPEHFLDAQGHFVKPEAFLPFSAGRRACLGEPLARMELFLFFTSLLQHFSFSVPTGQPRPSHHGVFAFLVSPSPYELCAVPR

With `SC1=NC2=C(C(c3ccc(Br)cc3)N1)N1CCC2CC1` (configuration not stated) the AC50 (Cytochrome P450 3A4) was 1.58 µM (inconclusive).
In the case of `CCn1c(S)nnc1CC(=O)Nc1ccc(C)cc1`, the EC50 [1] was > 120 µM (not active), the EC50 [2] was > 120 µM (not active) and the EC50 [3] was > 120 µM (not active).
With `CCOC(=O)CSc1nnc(CSc2nc3sc4c(c3c(=O)[nH]2)CCCC4)n1-c1ccccc1` the AC50 (Cytochrome P450 3A4) was 1 µM (inconclusive).
For `COc1cccc(N2C(=O)C(CC(=O)Nc3ccccc3)N(C3CCCCC3)C2=O)c1` (configuration not stated), the AC50 (Cytochrome P450 2D6) was 17.8 µM (inconclusive).
With `O=c1c(-c2cccs2)nc2cnc(Oc3cccc(Cl)c3)nc2n1C[C@H]1CCCO1` the AC50 (Cytochrome P450 3A4) was 10 µM (inconclusive).
In the case of `CC(=O)N1CCC[C@@]2(CCN(Cc3ccc(C#N)cc3)C2)C1`, the AC50 (Cytochrome P450 2D6) was 12.6 µM (inconclusive).
In the case of `CCOc1cc(C2NC(=O)NC(c3ccccc3)=C2C(C)=O)ccc1OCC(N)=O` (configuration not stated), the AC50 (Cytochrome P450 3A4) was 20 µM (inconclusive).
For `CCOC(=O)c1cnc2c(OC)cccc2c1N1CCN(c2ccccn2)CC1`, the EC50 [1] was 11.5 µM (active), the EC50 [2] was 15.6 µM (active) and the EC50 [3] was 53.9 µM (active).
For `COCCNc1ncnc2ccc(-c3c(C)noc3C)cc12`, the AC50 (Cytochrome P450 3A4) was 31.6 µM (inconclusive).
For `C[C@@]12C(=O)N(Cc3ccccc3)CC(=O)N1[C@H](/C=C/c1ccccc1)[C@@H]1C(=O)N(c3ccccc3)C(=O)[C@@H]12`, the EC50 [1] was 14.9 µM (active), the EC50 [2] was 25.8 µM (active) and the EC50 [3] was > 120 µM (not active).
For `COc1ccc(-c2cc(C)no2)cc1S(=O)(=O)N1CCOc2ccccc21`, the EC50 [1] was 31.4 µM (active), the EC50 [2] was > 120 µM (not active) and the EC50 [3] was 83.5 µM (active).
With `COc1cccc(-c2nc(NC3CCNCC3)c3ccccc3n2)c1` the AC50 (Cytochrome P450 3A4) was 25.1 µM (inconclusive).
In the case of `COc1ccc([N+](=O)[O-])cc1N=C(S)NC(NC(=O)C(c1ccccc1)c1ccccc1)C(Cl)(Cl)Cl` (configuration not stated), the EC50 (Streptococcus) was > 150 µM (not active) and the EC50 [4] was 14.4 µM (active).
In the case of `COc1ccc(NC(=O)N2CC[C@@]3(CCCN(C(=O)c4cccn4C)C3)C2)cc1`, the AC50 (Cytochrome P450 3A4) was 2 µM (inconclusive).
In the case of `O=C(c1ccncc1)N1CCC2(CCN(Cc3nccs3)CC2)CC1`, the AC50 (Cytochrome P450 2D6) was 15.8 µM (inconclusive).
In the case of `CCc1ccc(CNC(=O)C2CCN(S(=O)(=O)N3CC(C)CC(C)C3)CC2)cc1` (configuration not stated), the EC50 [1] was 93.3 µM (active), the EC50 [2] was > 120 µM (not active) and the EC50 [3] was > 120 µM (not active).
For `COc1ccc(CCNS(=O)(=O)c2cccc3cccnc23)cc1OC`, the EC50 [1] was > 120 µM (not active), the EC50 [2] was > 120 µM (not active) and the EC50 [3] was > 120 µM (not active).
For `CCCC[C@@H]1C[C@H]1C(NC(=O)Cc1ccccc1)c1ccc(-c2ccccc2)cc1` (some centres not stated), the AC50 (Cytochrome P450 3A4) was 12.6 µM (inconclusive).
With `CC(=O)NCCNc1ncncc1-c1ccccc1CN(C)C` the AC50 (Cytochrome P450 2D6) was 39.8 µM (inconclusive) and the AC50 (Cytochrome P450 3A4) was 12.6 µM (inconclusive).
With `O=C(C1CCCN(S(=O)(=O)c2ccc(Br)cc2)C1)N1CCN(Cc2ccccc2)CC1` (configuration not stated) the EC50 [1] was 22.7 µM (active), the EC50 [2] was 15.5 µM (active) and the EC50 [3] was > 120 µM (not active).
For `CCCc1nc2oc3c(NCCCN(C)C)ncnc3c2c2c1CCCC2`, the EC50 [1] was 8.73 µM (active), the EC50 [2] was 12.5 µM (active) and the EC50 [3] was > 120 µM (not active).
In the case of `CCC(C)(C)n1nnnc1C(c1ccc(C)cc1)N1CCC(C)CC1` (configuration not stated), the AC50 (Cytochrome P450 2D6) was 17.8 µM (inconclusive).
In the case of `COC(=O)C1N2C(=O)[C@@H](NC(=O)COc3ccccc3)[C@H]2SC1(C)C` (some centres not stated), the EC50 (Streptococcus) was 0.889 µM (active) and the EC50 [4] was 0.535 µM (active).
In the case of `COc1ccc(O[C@H]2C=C[C@@H](c3ccccc3)O[C@H]2COC(=O)N2CCCCC2)cc1`, the AC50 (Cytochrome P450 2D6) was 3.98 µM (inconclusive).
In the case of `CCOc1ccccc1NS(=O)(=O)c1ccc(Br)s1`, the EC50 [1] was > 120 µM (not active), the EC50 [2] was > 120 µM (not active) and the EC50 [3] was 25.2 µM (active).
With `CC(=O)Nc1ccc(S(=O)(=O)N(Cc2cccnc2)Cc2cc3ccc(C)cc3nc2O)cc1` the EC50 [1] was > 120 µM (not active), the EC50 [2] was > 120 µM (not active) and the EC50 [3] was > 120 µM (not active).
With `Cc1cccc(OCC(=O)NCC(=O)N/N=C/c2cc(Br)cc(Br)c2O)c1` the EC50 (Streptococcus) was 1.66 µM (active) and the EC50 [4] was 0.486 µM (active).
In the case of `CNCCc1c[nH]c2ccc(O)cc12`, the AC50 (Cytochrome P450 2D6) was 39.8 µM (inconclusive).
